Test results as given in patent publication US12403137B2, “Compounds and methods of use” (Tango Therapeutics, Inc., priority 2019, dated 2025).

Assays:
PRMT5 [1] = molecular target: T1, PRMT5 (Homo sapiens, UniProt O14744); experiment: PRMT5 inhibition assay with MTA as cofactor; format: biochemical; conditions: for IC50: against PRMT5 with MTA as cofactor; for SAM/MTA Ratio: ratio of Ki in the presence of SAM to Ki in the presence of MTA, Ki=IC50/1.5 (SAM), Ki=IC50/13.5 (MTA)
T1 construct: purchased Viva (custom protein)
Description: (§1) The Ki values can be calculated from the IC50 values as described in the Examples section. As detailed in the Examples section, for the assay performed in the presence of SAM, IC50=Ki×1.5 (Ki=IC50/1.5). For the assay performed in the presence of MTA, IC50=Ki×13.5 (Ki=IC50/13.5). Column 6 indicates the ratio between the Ki of compounds in the presence of SAM and the Ki of compounds in the presence of MTA

[2] = test system: HAP1 MTAP-intact cell line; experiment: SDMA in-cell western assay, HAP1 MTAP-intact; format: cell-based; conditions: Homo sapiens
Method: (§2) Table 1 also indicates IC50 values in an MTAP-isogenic cell line pair for exemplary compounds in an SDMA in-cell western assay (columns 7-8). HAP1 MTAP-intact is a cell line in which endogenous levels of MTAP are expressed, and HAP1 MTAP-deleted is an MTAP-null cell line. For Table 1, “a*” and “aa*” indicates an IC50 of <1 μM, “b*” and “bb*” indicates an IC50 equal to or greater than 1 μM but less than 10 μM, and “c*” and “cc*” indicates an IC50 of greater than or equal to 10 μM in the HAP1 MTAP-intact and the HAP1 MTAP-deleted assays, respectively. In column 9, “A*” indicates an IC50 ratio greater than or equal to 10 fold between the IC50 in the HAP1 MTAP-intact cell line and the HAP1 MTAP-deleted cell line; “B*” indicates an IC50 ratio greater than or equal to 3 fold but lower than 10 fold between the IC50 in the HAP1 MTAP-intact cell line and the HAP1 MTAP-deleted cell line; “C*” indicates an IC50 ratio of less than 3 fold between the IC50 in the HAP1 MTAP-intact cell line and the HAP1 MTAP-deleted cell line. Compounds with a ratio in the SDMA in-cell western assay of equal to or greater than 3 fold are considered MTAP-selective.

PRMT5 [3] = molecular target: T1, PRMT5; experiment: PRMT5 inhibition assay with SAM as cofactor; format: biochemical; conditions: against PRMT5 in the presence of SAM as cofactor
Description: as §1

PRMT5 [4] = molecular target: T1, PRMT5; experiment: PRMT5 inhibition assay with no cofactor; format: biochemical; conditions: against PRMT5 with no cofactor; read-out: No Co-factor IC50
[5] = test system: HAP1 MTAP-deleted cell line; experiment: SDMA in-cell western assay, HAP1 MTAP-deleted; format: cell-based; conditions: for IC50: Homo sapiens, HAP1 MTAP-deleted (MTAP-null) cell line; for MTAP Intact/Deleted Ratio: IC50 ratio HAP1 MTAP-intact / HAP1 MTAP-deleted, >=3 fold considered MTAP-selective
Method: as §2

T1 sequence (O14744 whole entry): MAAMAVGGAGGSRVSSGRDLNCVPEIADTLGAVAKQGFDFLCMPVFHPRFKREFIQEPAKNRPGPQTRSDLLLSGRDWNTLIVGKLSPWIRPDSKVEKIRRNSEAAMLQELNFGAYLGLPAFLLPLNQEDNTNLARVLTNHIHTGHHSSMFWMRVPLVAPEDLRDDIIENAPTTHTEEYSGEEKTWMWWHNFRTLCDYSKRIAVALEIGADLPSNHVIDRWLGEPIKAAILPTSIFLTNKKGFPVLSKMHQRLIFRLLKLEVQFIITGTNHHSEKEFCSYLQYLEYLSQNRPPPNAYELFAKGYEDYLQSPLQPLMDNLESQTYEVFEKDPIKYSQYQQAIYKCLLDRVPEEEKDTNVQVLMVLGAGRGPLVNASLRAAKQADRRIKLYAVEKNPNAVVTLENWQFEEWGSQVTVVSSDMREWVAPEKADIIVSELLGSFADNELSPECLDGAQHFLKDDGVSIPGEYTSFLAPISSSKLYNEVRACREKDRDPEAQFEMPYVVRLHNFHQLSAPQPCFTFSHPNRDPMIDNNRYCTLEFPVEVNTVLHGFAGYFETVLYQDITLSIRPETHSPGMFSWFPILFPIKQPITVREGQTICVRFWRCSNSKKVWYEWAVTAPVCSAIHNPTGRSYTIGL
T1 sequence (Q9BQA1 whole entry partner): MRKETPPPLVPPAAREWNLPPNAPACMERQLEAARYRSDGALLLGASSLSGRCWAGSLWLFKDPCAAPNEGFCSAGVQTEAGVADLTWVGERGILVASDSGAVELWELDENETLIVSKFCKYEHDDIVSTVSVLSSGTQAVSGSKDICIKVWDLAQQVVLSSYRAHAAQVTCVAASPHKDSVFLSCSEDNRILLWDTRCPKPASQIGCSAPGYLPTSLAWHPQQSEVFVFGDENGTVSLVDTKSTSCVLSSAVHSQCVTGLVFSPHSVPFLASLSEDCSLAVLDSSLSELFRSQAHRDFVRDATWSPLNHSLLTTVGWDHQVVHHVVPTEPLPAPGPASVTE

Row | Structure (SMILES) | IC50 (PRMT5 [1]) [nM] | SAM/MTA Ratio (PRMT5 [1]) | IC50 [2] [nM] | IC50 (PRMT5 [3]) [nM] | IC50 (PRMT5 [4]) [nM] | IC50 [5] [nM] | MTAP Intact/Deleted Ratio [5]
1 | Cc1ncoc1COc1ccc2c(c1)CN[C@H]([C@H](O)CNC(=O)c1ccc(C(=O)N3[C@@H]4CCC[C@H]3COC4)cc1)C2 [Compound 8, 4-((1R,5S)-3-oxa-9-azabicyclo[3.3.1]nonane-9-carbonyl)-N—((R)-2-hydroxy-2-((S)-7-((4-methyloxazol-5-yl)methoxy)-1,2,3,4-tetrahydroisoquinolin-3-yl)ethyl)benzamide] | 50 to 500 | A (a Ki ratio greater than or equal to 10 fold between the Ki in the presence of SAM and the Ki in the presence of MTA) | 1000 to 10000 | 50 to 500 | 50 to 500 | < 1000 | A* (an IC50 ratio greater than or equal to 10 fold between the IC50 in the HAP1 MTAP-intact cell line and the HAP1 MTAP-deleted cell line)
2 | Cn1nccc1COc1ccc2c(c1)CN[C@H]([C@H](O)CNC(=O)c1ccc(C(=O)N3[C@@H]4CCC[C@H]3COC4)cc1)C2 [Compound 9, 4-((1R,5S)-3-oxa-9-azabicyclo[3.3.1]nonane-9-carbonyl)-N—((R)-2-hydroxy-2-((S)-7-((1-methyl-1H-pyrazol-5-yl)methoxy)-1,2,3,4-tetrahydroisoquinolin-3-yl)ethyl)benzamide] | 50 to 500 | A (a Ki ratio greater than or equal to 10 fold between the Ki in the presence of SAM and the Ki in the presence of MTA) | ≥ 10000 | 50 to 500 | 500 to 5000 | 1000 to 10000 | B* (an IC50 ratio greater than or equal to 3 fold but lower than 10 fold between the IC50 in the HAP1 MTAP-intact cell line and the HAP1 MTAP-deleted cell line)
3 | CCOc1cc(C(=O)N2[C@@H]3CCC[C@H]2COC3)ccc1C(=O)NC[C@@H](O)[C@@H]1Cc2ccc(OCc3ocnc3C)cc2CN1 [Compound 10, 4-((1R,5S)-3-oxa-9-azabicyclo[3.3.1]nonane-9-carbonyl)-2-ethoxy-N—((R)-2-hydroxy-2-((S)-7-((4-methyloxazol-5-yl)methoxy)-1,2,3,4-tetrahydroisoquinolin-3-yl)ethyl)benzamide] | < 50 | A (a Ki ratio greater than or equal to 10 fold between the Ki in the presence of SAM and the Ki in the presence of MTA) | 1000 to 10000 | 50 to 500 | 50 to 500 | < 1000 | A* (an IC50 ratio greater than or equal to 10 fold between the IC50 in the HAP1 MTAP-intact cell line and the HAP1 MTAP-deleted cell line)
4 | CCOc1cc(C(=O)N2C3CCC2COC3)ccc1C(=O)NC[C@@H](O)[C@@H]1Cc2ccc(OCc3cnco3)cc2CN1 [Compound 11, 4-(3-oxa-8-azabicyclo[3.2.1]octane-8-carbonyl)-2-ethoxy-N—((R)-2-hydroxy-2-((S)-7-(oxazol-5-ylmethoxy)-1,2,3,4-tetrahydroisoquinolin-3-yl)ethyl)benzamide] | 50 to 500 | A (a Ki ratio greater than or equal to 10 fold between the Ki in the presence of SAM and the Ki in the presence of MTA) | 1000 to 10000 | 50 to 500 | 500 to 5000 | < 1000 | B* (an IC50 ratio greater than or equal to 3 fold but lower than 10 fold between the IC50 in the HAP1 MTAP-intact cell line and the HAP1 MTAP-deleted cell line)
5 | CCOc1cc(C(=O)N2C3CCC2COC3)ccc1C(=O)NC[C@@H](O)[C@@H]1Cc2ccc(OCc3ocnc3C)cc2CN1 [Compound 12, 4-(3-oxa-8-azabicyclo[3.2.1]octane-8-carbonyl)-2-ethoxy-N—((R)-2-hydroxy-2-((S)-7-((4-methyloxazol-5-yl)methoxy)-1,2,3,4-tetrahydroisoquinolin-3-yl)ethyl)benzamide] | 50 to 500 | A (a Ki ratio greater than or equal to 10 fold between the Ki in the presence of SAM and the Ki in the presence of MTA) | < 1000 | 50 to 500 | 500 to 5000 | < 1000 | B* (an IC50 ratio greater than or equal to 3 fold but lower than 10 fold between the IC50 in the HAP1 MTAP-intact cell line and the HAP1 MTAP-deleted cell line)
6 | CCOc1cc(C(=O)N2[C@@H]3CCC[C@H]2COC3)ccc1C(=O)NC[C@@H](O)[C@@H]1Cc2ccc(OCc3cnco3)cc2CN1 [Compound 13, 4-((1R,5S)-3-oxa-9-azabicyclo[3.3.1]nonane-9-carbonyl)-2-ethoxy-N—((R)-2-hydroxy-2-((S)-7-(oxazol-5-ylmethoxy)-1,2,3,4-tetrahydroisoquinolin-3-yl)ethyl)benzamide] | 50 to 500 | A (a Ki ratio greater than or equal to 10 fold between the Ki in the presence of SAM and the Ki in the presence of MTA) | 1000 to 10000 | 50 to 500 | 500 to 5000 | < 1000 | A* (an IC50 ratio greater than or equal to 10 fold between the IC50 in the HAP1 MTAP-intact cell line and the HAP1 MTAP-deleted cell line)
7 | CCOc1nc(N2CCN(C(=O)OC)CC2)ccc1C(=O)NC[C@@H](O)[C@@H]1Cc2ccc(OCc3cnco3)cc2CN1 [Compound 16, methyl 4-(6-ethoxy-5-(((R)-2-hydroxy-2-((S)-7-(oxazol-5-ylmethoxy)-1,2,3,4-tetrahydroisoquinolin-3-yl)ethyl)carbamoyl)pyridin-2-yl)piperazine-1-carboxylate] | < 50 | A (a Ki ratio greater than or equal to 10 fold between the Ki in the presence of SAM and the Ki in the presence of MTA) | 1000 to 10000 | 50 to 500 | 50 to 500 | < 1000 | B* (an IC50 ratio greater than or equal to 3 fold but lower than 10 fold between the IC50 in the HAP1 MTAP-intact cell line and the HAP1 MTAP-deleted cell line)
8 | CCOc1nc(N2CCN(C(=O)OC)CC2)ccc1C(=O)NC[C@@H](O)[C@@H]1Cc2ccc(OCc3ocnc3C)cc2CN1 [Compound 17, methyl 4-(6-ethoxy-5-(((R)-2-hydroxy-2-((S)-7-((4-methyloxazol-5-yl)methoxy)-1,2,3,4-tetrahydroisoquinolin-3-yl)ethyl)carbamoyl)pyridin-2-yl)piperazine-1-carboxylate] | < 50 | A (a Ki ratio greater than or equal to 10 fold between the Ki in the presence of SAM and the Ki in the presence of MTA) | 1000 to 10000 | 50 to 500 | 50 to 500 | < 1000 | A* (an IC50 ratio greater than or equal to 10 fold between the IC50 in the HAP1 MTAP-intact cell line and the HAP1 MTAP-deleted cell line)
9 | CCOc1nc(N2CCN(C(=O)OC)CC2)ccc1C(=O)NC[C@@H](O)[C@@H]1Cc2ccc(OCc3ccnn3C)cc2CN1 [Compound 18, methyl 4-(6-ethoxy-5-(((R)-2-hydroxy-2-((S)-7-((1-methyl-1H-pyrazol-5-yl)methoxy)-1,2,3,4-tetrahydroisoquinolin-3-yl)ethyl)carbamoyl)pyridin-2-yl)piperazine-1-carboxylate] | < 50 | A (a Ki ratio greater than or equal to 10 fold between the Ki in the presence of SAM and the Ki in the presence of MTA) | ≥ 10000 | 50 to 500 | 500 to 5000 | < 1000 | A* (an IC50 ratio greater than or equal to 10 fold between the IC50 in the HAP1 MTAP-intact cell line and the HAP1 MTAP-deleted cell line)
10 | Cc1ncoc1COc1ccc2c(c1)CN[C@H]([C@H](O)CNC(=O)c1ccc3c(c1)CCN(C(=O)c1ccc(Br)cc1)C3)C2 [Compound 20, 2-(4-bromobenzoyl)-N—((R)-2-hydroxy-2-((S)-7-((4-methyloxazol-5-yl)methoxy)-1,2,3,4-tetrahydroisoquinolin-3-yl)ethyl)-1,2,3,4-tetrahydroisoquinoline-6-carboxamide] | < 50 | A (a Ki ratio greater than or equal to 10 fold between the Ki in the presence of SAM and the Ki in the presence of MTA) | 1000 to 10000 | 50 to 500 | 50 to 500 | < 1000 | A* (an IC50 ratio greater than or equal to 10 fold between the IC50 in the HAP1 MTAP-intact cell line and the HAP1 MTAP-deleted cell line)
